A word on the DC50: it is the concentration giving 50% degradation. A lower DC50 goes with a more potent degrader.

The assay addresses T1, AR in VCaP cells (Homo sapiens, UniProt P10275).
T1 construct: endogenous in cells; host or cells: VCaP cells
T1 sequence (P10275 1-920): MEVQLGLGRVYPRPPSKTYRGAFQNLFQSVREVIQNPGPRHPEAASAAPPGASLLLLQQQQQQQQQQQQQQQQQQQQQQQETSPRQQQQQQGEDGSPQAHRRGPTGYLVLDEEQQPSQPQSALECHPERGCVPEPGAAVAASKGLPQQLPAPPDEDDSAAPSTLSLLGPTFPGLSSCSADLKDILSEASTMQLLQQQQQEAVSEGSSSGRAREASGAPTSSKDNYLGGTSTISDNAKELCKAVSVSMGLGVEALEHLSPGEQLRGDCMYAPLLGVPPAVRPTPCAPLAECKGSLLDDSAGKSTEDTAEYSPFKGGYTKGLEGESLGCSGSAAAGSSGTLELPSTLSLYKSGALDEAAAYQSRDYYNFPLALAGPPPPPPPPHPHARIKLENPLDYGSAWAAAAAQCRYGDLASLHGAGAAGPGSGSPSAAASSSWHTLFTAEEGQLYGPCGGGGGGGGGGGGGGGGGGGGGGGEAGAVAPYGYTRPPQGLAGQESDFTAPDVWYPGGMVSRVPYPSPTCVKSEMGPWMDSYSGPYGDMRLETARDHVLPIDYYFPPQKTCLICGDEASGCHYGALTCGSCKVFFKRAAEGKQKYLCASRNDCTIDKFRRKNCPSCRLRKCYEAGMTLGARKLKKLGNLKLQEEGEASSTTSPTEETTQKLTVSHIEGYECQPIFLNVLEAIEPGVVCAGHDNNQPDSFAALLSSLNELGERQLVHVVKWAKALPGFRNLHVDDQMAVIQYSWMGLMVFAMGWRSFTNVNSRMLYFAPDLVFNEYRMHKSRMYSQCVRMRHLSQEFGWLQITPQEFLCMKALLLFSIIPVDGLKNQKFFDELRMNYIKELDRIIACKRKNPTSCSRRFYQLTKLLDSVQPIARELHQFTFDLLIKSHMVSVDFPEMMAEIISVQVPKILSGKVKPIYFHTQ
Briefly: VCAP AR Degradation Assay (AR ELISA, 24 h). In kind it is cell-based. Particulars: for DC50: concentration giving 50% AR degradation vs DMSO control; for remaining activity at up to 5 µM: lowest measured AR level normalized to DMSO control, top concentration 5 μM, read-out: Y. Here is the method:
VCAP AR Degradation Assay. Test compounds were pre-dispensed into a Corning CellBind 96-well clear bottom plate (Cat #3300) using an acoustic dispenser to make a 10-point concentration series at 1:3 dilution for each compound. The final top concentration of each compound was 5 μM. DMSO at a final concentration of 0.1% was used as a control. VCaP cells cultured in DMEM with 8% fetal bovine serum (FBS) were seeded at 50K cells per well in a 200 μL volume into the compound plate and incubated at 37° C. in a CO2 incubator for 24 h. The medium was carefully removed from the cells and the plate was placed on ice. One hundred μL of ice-cold 1× cell lysis buffer from Cell Signaling Technologies (Cat #9803) was added to each well of the cells and the plate was incubated at 4° C. on a shaker for 1 h. Fifteen μL of cell lysate was used for AR ELISA detection using a PathScan Total Sandwich AR ELISA kit (Cell Signaling Technology, Cat #12580). AR levels in compound-treated wells were normalized to that of DMSO control and expressed as percent of control (PoC) (y). A Four Parameter Logistic Model (Sigmoidal Dose-Response Model) was used to determine the compound's DC50, and EC50, using the following equation: […]
The lowest measured AR level normalized to DMSO control in response to compound treatment, termed Y value, was used to characterize the compound-mediated AR degradation efficiency.

A value given as a limit tells only on which side of the number the result lay.

Regarding `CC1(C)C(=O)N(c2ccc(C#N)c(C(F)(F)F)c2)C(=S)N1[C@H]1CC[C@H](OCCCN2CCN(CC(=O)Nc3ccc(C4CCC(=O)NC4=O)nc3)[C@@H](C(F)(F)F)C2)CC1` (stereo partly drawn) [Cmpd 25, 2-((R)-4-(3-(((trans)-4-(3-(4-Cyano-3-(trifluoromethyl)phenyl)-5,5-dimethyl-4-oxo-2-thioxoimidazolidin-1-yl)cyclohexyl)oxy)propyl)-2-(trifluoromethyl)piperazin-1-yl)-N-(6-(2,6-dioxopiperidin-3-yl)pyridin-3-yl)acetamide], the DC50 was no more than 5 nM and the remaining activity at up to 5 µM was 20 to 30%.

As for `C[C@@H]1C[C@H](OCCC[C@H]2CC[C@H](N3C(=S)N(c4cnc(C#N)c(C(F)(F)F)c4)C(=O)C3(C)C)CC2)C[C@H](C)N1CC(=O)Nc1ccc(C2CCC(=O)NC2=O)nc1` (stereo partly drawn) [Cmpd 26, 2-((2R,4r,6S)-4-(3-((trans)-4-(3-(6-Cyano-5-(trifluoromethyl)pyridin-3-yl)-5,5-dimethyl-4-oxo-2-thioxoimidazolidin-1-yl)cyclohexyl)propoxy)-2,6-dimethylpiperidin-1-yl)-N-(6-(2,6-dioxopiperidin-3-yl)pyridin-3-yl)acetamide], the DC50 was no more than 5 nM and the remaining activity at up to 5 µM fell in the range of 0 to 20%.

Consider `C[C@@H]1C[C@H](OCC[C@H]2CC[C@H](N3C(=S)N(c4ccc(C#N)c(C(F)(F)F)c4)C(=O)C3(C)C)CC2)C[C@H](C)N1CC(=O)Nc1ccc(C2CCC(=O)NC2=O)nc1` (stereo partly drawn) [Cmpd 27, 2-((2R,4r,6S)-4-(2-((trans)-4-(3-(4-Cyano-3-(trifluoromethyl)phenyl)-5,5-dimethyl-4-oxo-2-thioxoimidazolidin-1-yl)cyclohexyl)ethoxy)-2,6-dimethylpiperidin-1-yl)-N-(6-(2,6-dioxopiperidin-3-yl)pyridin-3-yl)acetamide], for which the DC50 was in the range of 5 to 10 nM and the remaining activity at up to 5 µM is 20 to 30%.

On to `C[C@@H]1C[C@H](OCC[C@H]2CC[C@H](N3C(=S)N(c4cnc(C#N)c(C(F)(F)F)c4)C(=O)C3(C)C)CC2)C[C@H](C)N1CC(=O)Nc1ccc(C2CCC(=O)NC2=O)nc1` (stereo partly drawn) [Cmpd 28, 2-((2R,4r,6S)-4-(2-((trans)-4-(3-(6-Cyano-5-(trifluoromethyl)pyridin-3-yl)-5,5-dimethyl-4-oxo-2-thioxoimidazolidin-1-yl)cyclohexyl)ethoxy)-2,6-dimethylpiperidin-1-yl)-N-(6-(2,6-dioxopiperidin-3-yl)pyridin-3-yl)acetamide], for which the DC50 was no more than 5 nM and the remaining activity at up to 5 µM was in the range of 20 to 30%.

`C[C@@H]1C[C@H](OCCO[C@H]2CC[C@H](N3C(=S)N(c4ccc(C#N)c(C(F)(F)F)c4)C(=O)C3(C)C)CC2)C[C@H](C)N1CC(=O)Nc1ccc(C2CCC(=O)NC2=O)nc1` (stereo partly drawn) [Cmpd 29, 2-((2R,4r,6S)-4-(2-(((trans)-4-(3-(4-Cyano-3-(trifluoromethyl)phenyl)-5,5-dimethyl-4-oxo-2-thioxoimidazolidin-1-yl)cyclohexyl)oxy)ethoxy)-2,6-dimethylpiperidin-1-yl)-N-(6-(2,6-dioxopiperidin-3-yl)pyridin-3-yl)acetamide]: the DC50 is no more than 5 nM and the remaining activity at up to 5 µM fell in the range of 20 to 30%.

Regarding `C[C@@H]1C[C@H](OCCO[C@H]2CC[C@H](N3C(=S)N(c4cnc(C#N)c(C(F)(F)F)c4)C(=O)C3(C)C)CC2)C[C@H](C)N1CC(=O)Nc1ccc(C2CCC(=O)NC2=O)nc1` (stereo partly drawn) [Cmpd 30, 2-((2R,4r,6S)-4-(2-(((trans)-4-(3-(6-Cyano-5-(trifluoromethyl)pyridin-3-yl)-5,5-dimethyl-4-oxo-2-thioxoimidazolidin-1-yl)cyclohexyl)oxy)ethoxy)-2,6-dimethylpiperidin-1-yl)-N-(6-(2,6-dioxopiperidin-3-yl)pyridin-3-yl)acetamide], the DC50 was no more than 5 nM and the remaining activity at up to 5 µM fell in the range of 0 to 20%.

As to `CC1(C)C(=O)N(c2ccc(C#N)c(C(F)(F)F)c2)C(=S)N1[C@H]1CC[C@H](OCCC2CCN(CC(=O)Nc3ccc(C4CCC(=O)NC4=O)nc3)CC2(F)F)CC1` (stereo partly drawn) [Cmpd 31, 2-(4-(2-(((trans)-4-(3-(4-Cyano-3-(trifluoromethyl)phenyl)-5,5-dimethyl-4-oxo-2-thioxoimidazolidin-1-yl)cyclohexyl)oxy)ethyl)-3,3-difluoropiperidin-1-yl)-N-(6-(2,6-dioxopiperidin-3-yl)pyridin-3-yl)acetamide], the 50% degradation concentration (DC50) was no more than 5 nM and the remaining activity at up to 5 µM fell in the range of 0 to 20%.

For the compound `CC1(C)C(=O)N(c2cnc(C#N)c(C(F)(F)F)c2)C(=S)N1[C@H]1CC[C@H](OCCC2CCN(CC(=O)Nc3ccc(C4CCC(=O)NC4=O)nc3)CC2(F)F)CC1` (stereo partly drawn) [Cmpd 32, 2-(4-(2-(((trans)-4-(3-(6-Cyano-5-(trifluoromethyl)pyridin-3-yl)-5,5-dimethyl-4-oxo-2-thioxoimidazolidin-1-yl)cyclohexyl)oxy)ethyl)-3,3-difluoropiperidin-1-yl)-N-(6-(2,6-dioxopiperidin-3-yl)pyridin-3-yl)acetamide], the 50% degradation concentration (DC50) was no more than 5 nM and the remaining activity at up to 5 µM was 0 to 20%.

Values taken from patent US20240374591A1, “CEREBLON BINDING COMPOUNDS, COMPOSITIONS THEREOF, AND METHODS OF TREATMENT THEREWITH” (CELGENE CORPORATION, priority 2021, published 2024).
